In patent US5998666A, “Phenoxyethylamine derivatives, method of preparation, application as medicine and pharmaceutical compositions containing same” (Societe de Conseils de Recherches Et d'Applications …, priority 1996, dated 1999):
pKi: −log10 of the molar value.

Target: T1, 5-HT1A receptor (Rattus norvegicus, UniProt P19327)
T1 construct: from tissue; host or cells: cerebral cortex membranes of male Sprague Dawley rats
T1 sequence (P19327 1-422): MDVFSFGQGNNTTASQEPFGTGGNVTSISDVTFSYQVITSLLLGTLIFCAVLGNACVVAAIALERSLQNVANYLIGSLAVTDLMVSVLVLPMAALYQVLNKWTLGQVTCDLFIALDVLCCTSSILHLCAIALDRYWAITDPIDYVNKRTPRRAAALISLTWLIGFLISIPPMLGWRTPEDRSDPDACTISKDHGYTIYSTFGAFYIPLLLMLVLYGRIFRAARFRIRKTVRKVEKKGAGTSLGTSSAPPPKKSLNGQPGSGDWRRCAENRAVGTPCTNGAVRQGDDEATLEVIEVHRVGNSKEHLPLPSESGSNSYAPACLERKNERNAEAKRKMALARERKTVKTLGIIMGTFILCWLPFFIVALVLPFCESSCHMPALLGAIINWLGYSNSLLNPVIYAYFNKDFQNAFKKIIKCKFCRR
Experiment: Affinity for 5-HT1A receptor: inhibition of [3H]8-OH-DPAT binding to rat cerebral cortex membranes
Settings: [3H]8-OH-DPAT (1 nM), 30 min at 25° C., Tris-HCl 50 mM, pH=7.4
Experimental: The affinity of the compounds for serotonergic 5-HT1A receptors is determined by measuring the inhibition of [3H]8-hydroxy-2-(di-n-propylaminotetralin ([3H]8-OH-DPAT) bound to the cerebral cortex of the rat, according to the method of Peroutka and his coworkers [(J. Neurochem., 47, 529 (1986)].
Cerebral cortices of male Sprague Dawley rats are homogenised in Tris-HCl 50 mM, pH=7.4 and centrifuged at 40,000 g for 10 min at 4° C. Pellets are resuspended in the same buffer and incubated for 10 min at 37° C., and the homogenised products are centrifuged again at 40,000 g for 10 min at 4° C.
Competitive inhibition tests of [3H]8-OH-DPAT binding are carried out three times with unlabelled competitors, with concentrations between 100 pM and 100 μM. Cerebral cortex membranes of rats (10 mg wet weight/ml) are incubated with [3H]8-OH-DPAT (1 nM) for 30 min at 25° C. in Tris-HCl 50 mM, pH=7.4 containing 4 mM of CaCl2, […] of paragyline and 0.1% of ascorbic acid.
The bound [3H]8-OH-DPAT is separated from free [3H]8-OH-DPAT by immediate filtration by means of Whatman GF/B glass fibre filters using a Brandel cell recovery device. The filters are washed three times with the same buffer at 0-4° C. and their radioactivity is studied by means of a liquid scintillation spectrometer.
The specific binding is obtained by subtracting the binding determined in the presence of […] of 8-OH-DPAT from the total binding. The characteristics of the binding are analysed by iterative analysis of the non-linear regression by computer, using the Ligand program [Munson and Rodbard, Anal. Biochem., 107, 220 (1980)].

SMILES | pKi
CC(=O)Nc1cccc(OCCNCCCCC(=O)NCC(C)(C)C)c1 [Compound 12, N-neopentyl-5-[{2-(3-(methylcarbonylamino)phenoxy)ethyl}-amino]pentanamide] | 9.06
COc1ccccc1OCCNCCCCC(=O)NC(C)(C)C [Compound 1, N-tert-butyl-5-[{2-(2-methoxyphenoxy)ethyl}amino]pentanamide] | 9.27
NC(=O)Nc1cccc(OCCNCCCCC(=O)NC2CCCCCC2)c1 [Compound 10, N-cyclcoheptyl-5-[{2-(3-(aminocarbonylamino)phenoxy)ethyl}amino]pentanamide] | 9.89
COc1ccccc1OCCNCCCCC(=O)NC1CCCCCC1 [Compound 5, N-cycloheptyl-5-[{2-(2-methoxyphenoxy)ethyl}amino]pentanamide] | 10.01
CC(=O)Nc1cccc(OCCNCCCCC(=O)NC2CCCCC2)c1 [Compound 11, N-cyclohexyl-5-[{2-(3-(methylcarbonylamino)phenoxy)ethyl}amino]pentanamide] | 9.43
COc1ccccc1OCCNCCCCC(=O)NC1CCCC1 [Compound 4, N-cyclopentyl-5-[{2-(2-methoxyphenoxy)ethyl}amino]pentanamide] | 9.54
COC(=O)Nc1cccc(OCCNCCCCC(=O)NCC(C)(C)C)c1 [Compound 13, N-neopentyl-5-[{2-(3-(methoxycarbonylamino)phenoxy)ethyl}amino]pentanamide] | 9.08
COc1ccccc1OCCNCCCCC(=O)NC1CCCCC1 [Compound 2, N-cyclohexyl-5-[{2-(2-methoxyphenoxy)ethyl}amino]pentanamide] | 9.72
COc1ccccc1OCCNCCCCC(=O)NCC(C)(C)C [Compound 3, N-neopentyl-5-[{2-(2-methoxyphenoxyl)ethyl}amino]pentanamide] | 9.49
CC(C)(C)CNC(=O)CCCCNCCOc1cccc(NC(N)=O)c1 [Compound 9, N-neopentyl-5-[{2-(3-(aminocarbonylamino)phenoxy)ethyl}-amino]pentanamide] | 9.39
